This data set in a line: Recrystallization of CoQ10 from warm oil/alcohol solution on cooling to room temperature. The format is physicochemical. The settings on record: cooled to room temperature (25° C.). The procedure: (§1) 30 g of lecithin were dissolved in 100 g of alcohol and added with stirring to 520 g of water and 200 g of glycerin. 10 g of Coenzyme Q10 (ubichinone) [CoQ10] were dissolved at 40° C. in 40 g of vegetable oil and 100 g of alcohol (ethanol). […] Therefore, the CoQ10 solution, having a temperature of 40° C., was added to the lecithin/alcohol/glycerin/water mixture and then homogenized six times at 1200 bar (1.2·10^8 Pa) using a high pressure homgenizer of Microfluidics Corp (MT 110®), Thereby, the alcohol was homogeneously distributed in the nanoemulsion. An orange transparent nanoemulsion was obtained.
as §1, with “50 g” for “30 g”, “to 430” for “to 520”, “glycerin. 80” for “glycerin. 10”, “at 45°” for “at 40°”, “pressure homogenizer” for “pressure homgenizer”, “(MT 110®).” for “(MT 110®),”

Consider `COC1=C(OC)C(=O)C(C/C=C(\C)CC/C=C(\C)CC/C=C(\C)CC/C=C(\C)CC/C=C(\C)CC/C=C(\C)CC/C=C(\C)CC/C=C(\C)CC/C=C(\C)CCC=C(C)C)=C(C)C1=O` [CoQ10, Coenzyme Q10], for which the “behaviour of CoQ10 solution on cooling” value is given as “most of the CoQ10 recrystallizes out from the solution after some hours” (10 g CoQ10 dissolved at 40° C. in 40 g vegetable oil and 100 g alcohol); “most of the CoQ10 recrystallized out from the solution after some hours” (80 g CoQ10 dissolved at 45° C. in 40 g vegetable oil and 100 g alcohol).

The values above are taken from US20050048088A1, “Compositions comprising at least two nanoemulsions” (priority 2003, published 2005).
